Measurements reported in paper PMC9313566 (Basic & Clinical Pharmacology & Toxicology, 2022).

Target: haemoglobin (Hb) (Homo sapiens, UniProt P68871+P69905)
Assay: SPR
Format: binding

haemoglobin (Hb), sequence (P69905 2-142): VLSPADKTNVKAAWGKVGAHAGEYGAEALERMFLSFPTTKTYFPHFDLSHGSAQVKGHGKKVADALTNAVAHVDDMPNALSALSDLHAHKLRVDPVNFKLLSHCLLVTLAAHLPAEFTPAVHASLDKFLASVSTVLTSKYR
haemoglobin (Hb), sequence (P68871 2-147): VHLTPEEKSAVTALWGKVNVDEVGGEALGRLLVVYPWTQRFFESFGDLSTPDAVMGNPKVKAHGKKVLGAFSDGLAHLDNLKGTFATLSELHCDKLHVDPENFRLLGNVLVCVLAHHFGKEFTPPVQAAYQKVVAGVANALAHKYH

Row | Kd | SMILES
1 | 3.8 µM | C/C1=C\CC[C@H](C)C(=O)C[C@@H](C(C)C)C(=O)C1 [curdione]
2 | 18.2 µM | C/C1=C\Cc2c(C)coc2C/C(C)=C/CC1 [furanodiene]
3 | 75.4 µM | CC(C)=C1C/C=C(\C)CC/C=C(\C)CC1=O [germacrone]
4 | 2.27 µM | C=C[C@]1(C)CC[C@@H](C(=C)C)C[C@H]1C(=C)C [β-elemene]
